According to the NIST ThermoML archive (doi:10.1021/acs.jced.8b00135):

How the values were obtained:
[1] = 96.5 kPa, Liquid, Capillary tube (Ostwald / Ubbelohde) method
[2] = refractive index (Na D-line) (dimensionless); settings: 96.5 kPa, Liquid, Standard Abbe refractometry

Cc1ccccc1O [2-methylphenol]
Settings | refractive index, 288.15 K | refractive index, 293.15 K | refractive index, 298.15 K | refractive index, 303.15 K | refractive index, 308.15 K | viscosity, 288.15 K [mPa·s] | viscosity, 293.15 K [mPa·s] | viscosity, 298.15 K [mPa·s] | viscosity, 303.15 K [mPa·s] | viscosity, 308.15 K [mPa·s]
[1] | – | – | – | – | – | 13.28 | 9.68 | 7.76 | 6.575 | 5.566
[2] | 1.5407 | 1.5392 | 1.5382 | 1.5362 | 1.5336 | – | – | – | – | –
